# From the kinase profiling compilation of Christmann-Franck et al. (2016)
# Assays:
# Assay in all cases: KINOMEscan competition binding
# Conditions in all cases: compound 10.0 µM
# [1] = tested on: ABL1 (human), P00519 [Y253F]
# ANKK1 (human) = ANKK1 (human) (UniProt Q8NFD2)
# AURKA (human) = AURKA (human) (UniProt O14965)
# CHEK2 (human) = CHEK2 (human) (UniProt O96017)
# CRK2 (P.falciparum) = CRK2 (P.falciparum) (UniProt P61075)
# CSF1R (human) = CSF1R (human) (UniProt P07333)
# CSNK2A2 (human) = CSNK2A2 (human) (UniProt P19784)
# CaMK1 (human) = CaMK1 (human) (UniProt Q14012)
# EIF2AK2 (human) = EIF2AK2 (human) (UniProt P19525)
# FGFR4 (human) = FGFR4 (human) (UniProt P22455)
# GAK (human) = GAK (human) (UniProt O14976)
# GAK (human), sequence (O14976 whole entry, looked up): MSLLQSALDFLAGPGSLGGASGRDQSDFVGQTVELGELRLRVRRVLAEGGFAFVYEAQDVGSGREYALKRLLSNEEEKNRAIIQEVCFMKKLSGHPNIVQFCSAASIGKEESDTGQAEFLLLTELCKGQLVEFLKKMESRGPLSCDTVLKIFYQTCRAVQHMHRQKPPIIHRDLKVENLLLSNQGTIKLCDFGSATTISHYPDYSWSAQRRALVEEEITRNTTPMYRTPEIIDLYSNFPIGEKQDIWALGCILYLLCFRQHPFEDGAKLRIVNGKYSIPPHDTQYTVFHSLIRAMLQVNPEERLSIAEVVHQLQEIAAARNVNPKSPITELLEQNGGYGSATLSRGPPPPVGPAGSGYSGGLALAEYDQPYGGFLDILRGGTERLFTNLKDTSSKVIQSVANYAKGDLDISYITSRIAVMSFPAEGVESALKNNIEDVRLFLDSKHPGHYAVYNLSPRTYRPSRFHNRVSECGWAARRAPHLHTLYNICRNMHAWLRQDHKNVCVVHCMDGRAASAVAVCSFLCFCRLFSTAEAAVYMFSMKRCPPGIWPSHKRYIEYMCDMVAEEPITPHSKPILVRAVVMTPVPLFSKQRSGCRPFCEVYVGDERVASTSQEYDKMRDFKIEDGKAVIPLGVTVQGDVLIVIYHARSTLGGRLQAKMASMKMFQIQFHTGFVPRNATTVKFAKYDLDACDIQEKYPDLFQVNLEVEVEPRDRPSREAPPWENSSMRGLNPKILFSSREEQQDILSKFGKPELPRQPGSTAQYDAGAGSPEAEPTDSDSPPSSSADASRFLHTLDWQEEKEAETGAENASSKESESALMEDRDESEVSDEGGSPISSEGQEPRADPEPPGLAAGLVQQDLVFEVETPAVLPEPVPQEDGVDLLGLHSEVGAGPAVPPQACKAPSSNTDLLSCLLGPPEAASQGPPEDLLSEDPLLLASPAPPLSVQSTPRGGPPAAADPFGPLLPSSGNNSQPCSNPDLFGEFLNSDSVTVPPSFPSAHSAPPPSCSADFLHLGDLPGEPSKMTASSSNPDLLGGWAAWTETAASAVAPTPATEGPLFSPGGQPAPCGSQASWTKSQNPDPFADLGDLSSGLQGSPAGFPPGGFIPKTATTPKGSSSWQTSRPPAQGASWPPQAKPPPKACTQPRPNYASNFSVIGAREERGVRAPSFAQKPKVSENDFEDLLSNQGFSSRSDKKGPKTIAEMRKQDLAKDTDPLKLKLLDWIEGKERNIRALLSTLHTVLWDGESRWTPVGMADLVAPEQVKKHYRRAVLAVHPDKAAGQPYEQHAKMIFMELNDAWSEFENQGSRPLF
# GRK1 (human) = GRK1 (human) (UniProt Q15835)
# GSK3B (human) = GSK3B (human) (UniProt P49841)
# IRAK1 (human) = IRAK1 (human) (UniProt P51617)
# KIT (human) = KIT (human) (UniProt P10721)
# MAP2K1 (human) = MAP2K1 (human) (UniProt Q02750)
# MAP2K7 (human) = MAP2K7 (human) (UniProt O14733)
# MAP2K7 (human), sequence (O14733 whole entry, looked up): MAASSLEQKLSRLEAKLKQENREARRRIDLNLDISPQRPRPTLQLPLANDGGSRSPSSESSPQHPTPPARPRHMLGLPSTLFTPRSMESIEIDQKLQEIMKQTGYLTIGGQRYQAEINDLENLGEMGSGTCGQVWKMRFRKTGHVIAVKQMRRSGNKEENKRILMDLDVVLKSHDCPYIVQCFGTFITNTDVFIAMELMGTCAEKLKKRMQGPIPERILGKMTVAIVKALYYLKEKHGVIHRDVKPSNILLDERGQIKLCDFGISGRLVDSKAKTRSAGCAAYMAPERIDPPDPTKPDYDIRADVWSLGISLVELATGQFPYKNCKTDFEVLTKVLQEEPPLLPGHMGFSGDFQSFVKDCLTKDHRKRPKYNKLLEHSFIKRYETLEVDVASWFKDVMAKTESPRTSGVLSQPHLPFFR
# MAP3K10 (human) = MAP3K10 (human) (UniProt Q02779)
# MAP3K15 (human) = MAP3K15 (human) (UniProt Q6ZN16)
# MAP4K3 (human) = MAP4K3 (human) (UniProt Q8IVH8)
# MAPKAPK2 (human) = MAPKAPK2 (human) (UniProt P49137)
# MATK (human) = MATK (human) (UniProt P42679)
# MERTK (human) = MERTK (human) (UniProt Q12866)
# MYLK2 (human) = MYLK2 (human) (UniProt Q9H1R3)
# PAK1 (human) = PAK1 (human) (UniProt Q13153)
# PIK3CG (human) = PIK3CG (human) (UniProt P48736)
# PIK3CG (human), sequence (P48736 whole entry, looked up): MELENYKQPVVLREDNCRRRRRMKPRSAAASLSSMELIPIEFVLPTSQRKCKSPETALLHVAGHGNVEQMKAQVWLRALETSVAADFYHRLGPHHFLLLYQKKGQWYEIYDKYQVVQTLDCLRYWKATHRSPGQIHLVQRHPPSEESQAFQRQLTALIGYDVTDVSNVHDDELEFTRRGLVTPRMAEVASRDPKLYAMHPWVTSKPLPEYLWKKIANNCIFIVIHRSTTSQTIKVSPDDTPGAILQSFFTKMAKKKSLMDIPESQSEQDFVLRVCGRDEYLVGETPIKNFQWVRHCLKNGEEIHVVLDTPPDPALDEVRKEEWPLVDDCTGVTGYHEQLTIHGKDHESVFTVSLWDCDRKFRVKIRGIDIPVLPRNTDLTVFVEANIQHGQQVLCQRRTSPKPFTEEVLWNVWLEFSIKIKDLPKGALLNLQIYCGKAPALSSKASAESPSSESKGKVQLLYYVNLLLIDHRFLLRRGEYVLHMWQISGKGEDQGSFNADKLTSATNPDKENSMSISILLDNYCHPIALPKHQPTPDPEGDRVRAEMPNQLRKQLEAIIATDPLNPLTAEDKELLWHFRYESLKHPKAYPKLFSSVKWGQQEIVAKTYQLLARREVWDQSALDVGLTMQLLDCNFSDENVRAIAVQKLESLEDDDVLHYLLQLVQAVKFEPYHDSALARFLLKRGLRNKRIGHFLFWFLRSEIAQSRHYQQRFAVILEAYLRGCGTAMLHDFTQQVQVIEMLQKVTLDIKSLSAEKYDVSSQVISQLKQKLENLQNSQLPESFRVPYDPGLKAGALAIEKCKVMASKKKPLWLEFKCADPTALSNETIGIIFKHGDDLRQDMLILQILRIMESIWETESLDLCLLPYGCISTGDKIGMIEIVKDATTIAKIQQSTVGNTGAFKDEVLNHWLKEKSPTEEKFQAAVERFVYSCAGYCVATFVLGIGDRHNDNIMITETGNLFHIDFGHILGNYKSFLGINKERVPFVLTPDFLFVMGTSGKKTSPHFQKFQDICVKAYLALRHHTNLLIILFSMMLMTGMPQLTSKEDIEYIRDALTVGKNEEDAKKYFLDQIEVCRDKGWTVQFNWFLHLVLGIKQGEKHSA
# PIP5K1C (human) = PIP5K1C (human) (UniProt O60331)
# PLK2 (human) = PLK2 (human) (UniProt Q9NYY3)
# PLK2 (human), sequence (Q9NYY3 whole entry, looked up): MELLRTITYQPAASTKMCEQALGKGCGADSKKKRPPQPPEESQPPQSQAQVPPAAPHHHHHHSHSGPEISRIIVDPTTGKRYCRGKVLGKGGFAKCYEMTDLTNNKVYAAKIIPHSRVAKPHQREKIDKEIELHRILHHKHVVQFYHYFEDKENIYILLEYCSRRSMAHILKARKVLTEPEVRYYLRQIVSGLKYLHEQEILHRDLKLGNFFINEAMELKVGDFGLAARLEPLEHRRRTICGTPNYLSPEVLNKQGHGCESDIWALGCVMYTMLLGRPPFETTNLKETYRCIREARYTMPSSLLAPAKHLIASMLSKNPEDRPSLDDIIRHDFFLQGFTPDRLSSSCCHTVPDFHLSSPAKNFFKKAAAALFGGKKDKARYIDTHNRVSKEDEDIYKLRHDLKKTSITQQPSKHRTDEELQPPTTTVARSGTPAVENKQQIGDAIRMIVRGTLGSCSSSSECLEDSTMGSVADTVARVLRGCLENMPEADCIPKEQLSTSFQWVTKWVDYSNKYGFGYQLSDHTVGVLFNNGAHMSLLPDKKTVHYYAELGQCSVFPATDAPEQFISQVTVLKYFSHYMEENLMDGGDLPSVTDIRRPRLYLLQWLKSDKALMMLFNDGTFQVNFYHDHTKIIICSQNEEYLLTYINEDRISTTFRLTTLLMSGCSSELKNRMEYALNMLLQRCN
# PRKCI (human) = PRKCI (human) (UniProt P41743)
# ROCK1 (human) = ROCK1 (human) (UniProt Q13464)
# RPS6KA1 KD2 (human) = RPS6KA1 KD2 (human) (UniProt Q15418)
# RPS6KA4 KD2 (human) = RPS6KA4 KD2 (human) (UniProt O75676)
# RPS6KA4 KD2 (human), sequence (O75676 whole entry, looked up): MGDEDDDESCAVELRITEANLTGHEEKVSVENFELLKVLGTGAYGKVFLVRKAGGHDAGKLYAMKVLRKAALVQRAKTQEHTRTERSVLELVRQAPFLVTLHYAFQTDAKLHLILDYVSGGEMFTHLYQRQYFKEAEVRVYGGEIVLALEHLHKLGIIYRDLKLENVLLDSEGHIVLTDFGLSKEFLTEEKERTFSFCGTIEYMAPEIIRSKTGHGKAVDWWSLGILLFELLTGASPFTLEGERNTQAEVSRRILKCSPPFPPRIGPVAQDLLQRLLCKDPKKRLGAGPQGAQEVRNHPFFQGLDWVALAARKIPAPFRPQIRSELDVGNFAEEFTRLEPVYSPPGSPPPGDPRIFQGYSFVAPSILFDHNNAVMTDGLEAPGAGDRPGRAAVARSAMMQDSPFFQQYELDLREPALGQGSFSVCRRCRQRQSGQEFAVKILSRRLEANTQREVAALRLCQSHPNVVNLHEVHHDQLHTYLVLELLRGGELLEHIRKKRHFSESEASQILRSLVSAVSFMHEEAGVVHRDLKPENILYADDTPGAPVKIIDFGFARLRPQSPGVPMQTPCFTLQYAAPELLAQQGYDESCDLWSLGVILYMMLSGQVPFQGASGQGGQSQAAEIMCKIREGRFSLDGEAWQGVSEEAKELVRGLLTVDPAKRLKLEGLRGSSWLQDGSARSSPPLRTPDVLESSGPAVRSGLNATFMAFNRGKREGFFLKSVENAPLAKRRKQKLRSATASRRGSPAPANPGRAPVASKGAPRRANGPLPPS
# SIK1 (human) = SIK1 (human) (UniProt P57059)
# SRC (human) = SRC (human) (UniProt P12931)
# STK17A (human) = STK17A (human) (UniProt Q9UEE5)
# STK17A (human), sequence (Q9UEE5 whole entry, looked up): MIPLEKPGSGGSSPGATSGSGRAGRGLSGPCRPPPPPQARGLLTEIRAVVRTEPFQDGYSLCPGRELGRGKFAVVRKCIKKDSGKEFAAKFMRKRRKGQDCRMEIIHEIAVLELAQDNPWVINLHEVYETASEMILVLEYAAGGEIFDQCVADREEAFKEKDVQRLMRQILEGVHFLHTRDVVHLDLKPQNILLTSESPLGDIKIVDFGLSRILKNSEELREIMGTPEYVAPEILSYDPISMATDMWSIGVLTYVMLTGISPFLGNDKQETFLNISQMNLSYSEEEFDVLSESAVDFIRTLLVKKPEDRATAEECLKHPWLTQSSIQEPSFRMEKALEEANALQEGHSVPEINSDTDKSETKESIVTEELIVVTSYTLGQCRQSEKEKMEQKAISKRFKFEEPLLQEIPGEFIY
# STK17B (human) = STK17B (human) (UniProt O94768)
# STK17B (human), sequence (O94768 whole entry, looked up): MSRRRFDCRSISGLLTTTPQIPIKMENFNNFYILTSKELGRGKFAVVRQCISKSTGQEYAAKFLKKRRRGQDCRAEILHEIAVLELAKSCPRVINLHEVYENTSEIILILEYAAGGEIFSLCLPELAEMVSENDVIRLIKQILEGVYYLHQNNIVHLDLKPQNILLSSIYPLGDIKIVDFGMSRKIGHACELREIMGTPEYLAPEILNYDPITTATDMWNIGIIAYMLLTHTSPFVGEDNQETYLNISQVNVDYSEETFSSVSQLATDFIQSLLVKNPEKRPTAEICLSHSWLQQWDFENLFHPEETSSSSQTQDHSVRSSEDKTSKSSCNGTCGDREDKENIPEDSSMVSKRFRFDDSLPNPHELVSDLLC
# STK24 (human) = STK24 (human) (UniProt Q9Y6E0)
# SYK (human) = SYK (human) (UniProt P43405)
# ULK3 (human) = ULK3 (human) (UniProt Q6PHR2)
# YES1 (human) = YES1 (human) (UniProt P07947)
Compound,"kinase still bound, per cent of control [1] [%]","kinase still bound, per cent of control (ANKK1 (human)) [%]","kinase still bound, per cent of control (AURKA (human)) [%]","kinase still bound, per cent of control (CHEK2 (human)) [%]","kinase still bound, per cent of control (CRK2 (P.falciparum)) [%]","kinase still bound, per cent of control (CSF1R (human)) [%]","kinase still bound, per cent of control (CSNK2A2 (human)) [%]","kinase still bound, per cent of control (CaMK1 (human)) [%]","kinase still bound, per cent of control (EIF2AK2 (human)) [%]","kinase still bound, per cent of control (FGFR4 (human)) [%]","kinase still bound, per cent of control (GAK (human)) [%]","kinase still bound, per cent of control (GRK1 (human)) [%]","kinase still bound, per cent of control (GSK3B (human)) [%]","kinase still bound, per cent of control (IRAK1 (human)) [%]","kinase still bound, per cent of control (KIT (human)) [%]","kinase still bound, per cent of control (MAP2K1 (human)) [%]","kinase still bound, per cent of control (MAP2K7 (human)) [%]","kinase still bound, per cent of control (MAP3K10 (human)) [%]","kinase still bound, per cent of control (MAP3K15 (human)) [%]","kinase still bound, per cent of control (MAP4K3 (human)) [%]",also measured
COc1cc2ncnc(-n3nc(-c4ccccn4)nc3N)c2cc1OC,0.3,12,15,78,94,52,5.2,31,21,96,2.6,41,100,2.8,10,64,77,62,54,53,"kinase still bound, per cent of control (MAPKAPK2 (human)): 100%; kinase still bound, per cent of control (MATK (human)): 57%; kinase still bound, per cent of control (MERTK (human)): 29%; kinase still bound, per cent of control (MYLK2 (human)): 61%; kinase still bound, per cent of control (PAK1 (human)): 70%; kinase still bound, per cent of control (PIK3CG (human)): 3.1%; kinase still bound, per cent of control (PIP5K1C (human)): 5%; kinase still bound, per cent of control (PLK2 (human)): 13%; kinase still bound, per cent of control (PRKCI (human)): 55%; kinase still bound, per cent of control (ROCK1 (human)): 21%; kinase still bound, per cent of control (RPS6KA1 KD2 (human)): 14%; kinase still bound, per cent of control (RPS6KA4 KD2 (human)): 0.6%; kinase still bound, per cent of control (SIK1 (human)): 45%; kinase still bound, per cent of control (SRC (human)): 6.7%; kinase still bound, per cent of control (STK17A (human)): 1.6%; kinase still bound, per cent of control (STK17B (human)): 9.4%; kinase still bound, per cent of control (STK24 (human)): 56%; kinase still bound, per cent of control (SYK (human)): 24%; kinase still bound, per cent of control (ULK3 (human)): 10%; kinase still bound, per cent of control (YES1 (human)): 77%"
COc1ccc(N(C(=O)Oc2c(C)cccc2C)c2ccnc(Nc3ccc(N4CCN(C)CC4)cc3)n2)c(OC)c1,0.1,100,6.8,78,100,0.1,95,83,92,7.4,5.6,100,72,19,0.45,38,85,19,83,1.4,"kinase still bound, per cent of control (MAPKAPK2 (human)): 100%; kinase still bound, per cent of control (MATK (human)): 67%; kinase still bound, per cent of control (MERTK (human)): 20%; kinase still bound, per cent of control (MYLK2 (human)): 0.95%; kinase still bound, per cent of control (PAK1 (human)): 6.8%; kinase still bound, per cent of control (PIK3CG (human)): 100%; kinase still bound, per cent of control (PIP5K1C (human)): 96%; kinase still bound, per cent of control (PLK2 (human)): 100%; kinase still bound, per cent of control (PRKCI (human)): 62%; kinase still bound, per cent of control (ROCK1 (human)): 65%; kinase still bound, per cent of control (RPS6KA1 KD2 (human)): 65%; kinase still bound, per cent of control (RPS6KA4 KD2 (human)): 100%; kinase still bound, per cent of control (SIK1 (human)): 0.3%; kinase still bound, per cent of control (SRC (human)): 0.05%; kinase still bound, per cent of control (STK17A (human)): 100%; kinase still bound, per cent of control (STK17B (human)): 100%; kinase still bound, per cent of control (STK24 (human)): 52%; kinase still bound, per cent of control (SYK (human)): 1.4%; kinase still bound, per cent of control (ULK3 (human)): 59%; kinase still bound, per cent of control (YES1 (human)): 0.05%"
